Measurements: patent publication US5955092A, “Skin care compositions containing an n-substituted fatty acid amide and retinol or retinyl ester” (Elizabeth Arden Co., Division of Conopco, Inc., priority 1996, dated 1999)
Like-named read-outs stand apart in the source and are kept apart here.

Experiments:
ARAT = assay: In vitro Microsomal Esterification of Retinol, ARAT catalyzed; format: biochemical, bovine; conditions: 100 μM; 1 hour at 37° C.; pH 7
Procedure: (§1) Microsomes are obtained as described in: J. C. Saari and D. L. Bredberg, "CoA and Non-CoA Dependent Retinol Esterification in Retinal Figment Epithelium" J. Biol. Chem. 263, 8084-90 (1988).
(§2) A solution containing 0.1M sodium phosphate pH 7 buffer, 5 mM dithiothreitol, 2 mg/ml bovine serum albumin, 40 micromolar palmitoyl CoA, 40 micromolar dilauroyl phosphatidyl choline, 10 micromolar retinol and a test compound or a solvent blank, is incubated for 1 hour at 37° C. with a microsomal fraction isolated from bovine retinal pigment epithelial cells. After incubation, the reaction was quenched by addition of an equal volume of ethanol, and the retinyl esters formed (retinyl laurate from the LRAT catalyzed reaction and retinyl palmitate from ARAT catalyzed reaction) are extracted with hexane. The hexane layer is removed, evaporated under nitrogen, and the residue analyzed by HPLC on a 3.9×300 mm C18 reversed phase column using a 80% methanol in tetrahydrofuran mobile phase and fluorescence detection (325 nm excitation, 480 nm emission) to quantitate the retinyl ester. The quantity of ester formed in the presence of the solvent blank is taken as 100%, and this is used to calculate the percent inhibition of ester formation for the compounds tested. As a control, an aliquot of microsomes is inactivated by boiling for 5 minutes, which results in at least 95% inhibition of ester formation. […]

LRAT = target: T1, LRAT (Bos taurus, UniProt Q9BGL2); assay: In vitro Microsomal Esterification of Retinol, LRAT catalyzed; format: biochemical, bovine; conditions: 1 hour at 37° C., pH 7
T1 construct: microsomal fraction isolated from bovine retinal pigment epithelial cells; from tissue; host or cells: microsomes of bovine retinal pigment epithelial cells
T1 sequence (Q9BGL2 1-230): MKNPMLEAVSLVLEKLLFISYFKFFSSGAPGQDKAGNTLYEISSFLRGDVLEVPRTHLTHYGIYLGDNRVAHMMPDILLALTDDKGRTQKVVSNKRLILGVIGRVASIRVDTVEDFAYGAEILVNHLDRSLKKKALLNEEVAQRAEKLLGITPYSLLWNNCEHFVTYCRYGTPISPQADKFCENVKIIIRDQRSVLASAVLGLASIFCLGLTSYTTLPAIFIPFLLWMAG
Procedure: as §1, §2

[1] = test system: Human keratinocytes (TGase I); assay: Transglutaminase (TGase I) ELISA in cultured keratinocytes, normalized to DNA (Example 1); format: cell-based; conditions: for dose dependence of decrease in transglutaminase level: 2.5×10^-7 M to 2.5×10^-9 M; for mean TGase/DNA × 10^-4 ± s.d: 72 hours, n = 3, Control 2.44 ± 0.24
Procedure: Human keratinocytes, isolated from neonatal foreskin by trypsin treatment were grown in Dulbecco Modification Eagle (DME) Hams F12 (1:1) medium/10% fetal calf serum in the presence of irradiated 3T3 mouse fibroblasts for establishing dividing keratinocyte colonies. Cells were grown under the above condition until their second passage and kept frozen for future use. Frozen second passage keratinocytes were thawed and plated into the above medium and grown for five days before they were switched to a serum-free MCDB 153-based medium keratinocyte growth medium (KGM) from Clonetics Corporation, San Diego, Calif., containing 0.15 mM Ca, or keratinocyte serum-free media (KSFM) from GIBCO containing 0.09 mM Ca). On day 7, when the cells were 80-90% confluent, they were trypsinized and plated in the serum-free medium for the various experiments.
(§3) During the process of terminal differentiation in the epidermis, a 15 nm thick layer of protein, known as the cornified envelope (CE) is formed on the inner surface of the cell periphery. The CE is composed of numerous distinct proteins which have been cross-linked together by the formation of N^ε -(γ-glutamyl) lysine isodipeptide bonds catalyzed by the action of at least two different transglutaminases (TGases) expressed in the epidermis. TGase I is expressed in abundance in the differentiated layers of the epidermis, especially the granular layer, but is absent in the undifferentiated basal epidermis. Thus TGase I is a useful marker of epidermal keratinocyte differentiation with high TGase I levels indicating a more differentiated state. An ELISA based TGase I assay, using a TGase I antibody, was used to assess the state of differentiation of the cultured keratinocytes in the examples that follow.
For Example 1, the following procedure was used:
Keratinocytes (cultured as described above) were plated in 96 well plates at a density of 3,000 cells per well in 200 μl media. After incubation for four days the media was changed to media containing test compounds (six replicates per test). The cells were cultured for a further 72 hours after which time the media was aspirated and the plates stored at -70° C. Plates were removed from the freezer, and the cells washed with PBS. 100 μl sterile water was added and the cells were freeze fractured by freezing at -70° C. then thawing. The cells were incubated for one hour at room temperature (R/T) with PBS/3% BSA (wash buffer, bovine serum albumin), then rinsed with a fresh aliquot of wash buffer. Cells were incubated with 50 μl of primary antibodies monoclonal anti-human transglutaminase mouse antibody (IgG) obtained from Biomedical Industries diluted 1:2,000 in wash buffer for one hour, 37° C. then rinsed two times with wash buffer. Cells were then incubated with 50 μl of secondary antibody (Fab fragment, peroxidase conjugated anti-mouse IgG obtaining from Amersham) diluted 1:4,000 in wash buffer for one hour at 37° C., then rinsed two times with wash buffer. Cells were incubated with substrate solution (4 mg o-phenylene diamine and 3.3 μl 30% H2 O2 in 10 ml 0.1 M citrate buffer pH 5.0) for five minutes, R/T, in darkness (under aluminum foil). The reaction was stopped by the addition of 50 μl 4N H2 SO4. The absorbance of samples was read at 492 nm in the plate reader. Out of the six replicates, four were treated with both antibodies, two were treated only with the secondary antibody (i.e., to determine background binding of enzyme conjugated Ab). TGase levels were determined by subtracting background from the readings from each treatment and determining mean±s.d. for the replicates exposed to both Ab.
The level of TGase-1 detected after treatment of the cells could be influenced by cell number, i.e., the greater the number of cells the greater the level of TGase-1 detected. The level of TGase-1 was normalized to DNA content of the cells in the same well thus eliminating variation due to differences in cell number. […]

[2] = test system: Human keratinocytes (TGase I); assay: Transglutaminase (TGase I) ELISA in cultured keratinocytes, normalized to DNA (Example 3); format: cell-based; conditions: for mean TGase/DNA × 10^5 ± s.d: Control 57.80 ± 8.61; for activity at 0.25 µM: Homo sapiens, Keratinocyte, read-out: mean TGase/DNA (% control)
Procedure: Human keratinocytes, isolated from neonatal foreskin by trypsin treatment were grown in Dulbecco Modification Eagle (DME) Hams F12 (1:1) medium/10% fetal calf serum in the presence of irradiated 3T3 mouse fibroblasts for establishing dividing keratinocyte colonies. Cells were grown under the above condition until their second passage and kept frozen for future use. […] On day 7, when the cells were 80-90% confluent, they were trypsinized and plated in the serum-free medium for the various experiments.
as §3
Keratinocytes (cultured as described above) were plated in 96 well plates at a density of 3,000 cells per well in 200 μl of cell culture media. After incubation for four days, the media was changed to media containing test compounds (six replicates per test). The cells were cultured for a further 72 hours after which time the media was aspirated and the plates stored at -70° C. After the plates were removed from the freezer, the cells were further freezed fractured by freezing and thawing and then washed 3× with PBS. The cells were incubated for one hour at room temperature (R/T) with TBS/5% BSA buffer. Cells were then incubated with 100 μl of monoclonal anti-human transglutaminase (IgG) mouse antibody (primary antibody) obtained from Biomedical Technologies Inc. diluted 1:2000 in TBS/1% BSA buffer for two hours at 37° C., and then rinsed six times with wash buffer (TBS/1% BSA/0.05% Tween-20). Cells were next incubated with 100 μl of Fab fragment, peroxidase conjugated anti-mouse IgG antibody (secondary antibody) from Amersham diluted 1:4,000 in wash buffer for two hours at 37° C. and then rinsed three times with wash buffer and three times with PBS. Cells were incubated with substrate solution (4 mg o-phenylene diamine and 3.3 μl 30% H2 O2 in 10 mL 0.1M citrate buffer, pH 5.0) for five minutes at R/T and in darkness (under aluminum foil). […] The absorbance of samples was read at 492 nm in the plate reader. […] Transglutaminase I levels were determined by subtracted background from the readings from each treatment and determining the mean s.d. for the replicates exposed to both antibodies.
The level of TGase-1 was normalized to DNA content of the cells in the same well thus eliminating variation due to differences in cell number. DNA quantitation is a particularly useful indicator of cell number, including keratinocyte cell number, because each cell has to all intents and purposes an identical genome and therefore an identical quantity of DNA. […] Quantitation of DNA was used to normalize the TGase data to cell number. […]

Structure (SMILES)	% INHIBITION, ARAT (ARAT) [%]	inhibition at 100 µM (LRAT) [%]	dose dependence of decrease in transglutaminase level [1]	decrease of keratinocyte differentiation compared with corresponding retinol treatments ([1]; 2.5×10^-7 M, 2.5×10^-8 M and 2.5×10^-9 M, vs retinol at same concentration)	effect on keratinocyte differentiation vs ethanol control ([1]; all concentrations tested: 2.5×10^-7 M, 2.5×10^-8 M and 2.5×10^-9 M)	mean TGase/DNA × 10^5 ± s.d ([2]; 2.5 × 10^-7 M, 72 hours, n = 3)	activity at 0.25 µM ([2]; 72 h) [%]	mean TGase/DNA × 10^-4 ± s.d ([1]; 2.5 × 10^-7 M)	mean TGase/DNA × 10^-4 ± s.d ([1]; 2.5 × 10^-8 M)	mean TGase/DNA × 10^-4 ± s.d ([1]; 2.5 × 10^-9 M)	inhibition of keratinocyte TG1 level when used alone (in words) ([2]; 2.5×10^-7 M retinol, 10^-4 M Formula A, used alone, compared with 2.5×10^-7 M retinoic acid)	activity at 0.25 µM ([2]; 2.5 × 10^-7 M, 72 hours, n = 3) [%]
CCCCCCCC(=O)NC(COC)COC [Formula C]	0	0	–	–	–	–	–	–	–	–	–	–
CC1=C(/C=C/C(C)=C/C=C/C(C)=C/C(=O)O)C(C)(C)CCC1 [Retinoic acid]	–	–	dose dependent	significantly greater extent	decreased keratinocyte differentiation	39.99 ± 5.28 × 10^5	69	–	–	–	–	–
CC1=C(/C=C/C(C)=C/C=C/C(C)=C/CO)C(C)(C)CCC1 [Retinol]	–	–	dose dependent	–	–	45.60 ± 3.92 × 10^5	–	1.14 ± 0.22 × 10^-4	1.89 ± 0.30 × 10^-4	2.70 ± 0.59 × 10^-4	less effective	79
